Test results reported in patent publication US20030215462A1, “Use of UGT inhibitors to increase bioavailability” (priority 2001, published 2003).
Values joined by “and” are separate entries in the source; they are usually repeats but may differ in a detail not shown here. Identical values can stand only once.

Experiments:
[1] = target: T1, UGT1A1 (Homo sapiens, UniProt P22309); experiment: Substrate glucuronidation by recombinant UGT1A1; details: for 7-HFC glucuronidation rate: 7-HFC 50 μM
T1 sequence (P22309 26-533): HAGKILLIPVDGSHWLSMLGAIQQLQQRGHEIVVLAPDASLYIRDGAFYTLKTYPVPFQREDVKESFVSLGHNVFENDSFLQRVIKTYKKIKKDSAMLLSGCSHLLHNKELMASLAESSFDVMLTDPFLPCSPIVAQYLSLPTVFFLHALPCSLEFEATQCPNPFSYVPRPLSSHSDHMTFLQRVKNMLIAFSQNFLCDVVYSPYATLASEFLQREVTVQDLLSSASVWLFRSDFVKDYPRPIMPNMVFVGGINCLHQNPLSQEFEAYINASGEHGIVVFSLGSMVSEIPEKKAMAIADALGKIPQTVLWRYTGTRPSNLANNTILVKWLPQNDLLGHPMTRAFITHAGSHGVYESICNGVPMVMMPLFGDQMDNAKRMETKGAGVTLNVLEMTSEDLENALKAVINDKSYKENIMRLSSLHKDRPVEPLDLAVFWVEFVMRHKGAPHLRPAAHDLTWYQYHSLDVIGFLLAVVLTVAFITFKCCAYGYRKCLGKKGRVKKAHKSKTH

[2] = target: T2, UGT1A8 (Homo sapiens, UniProt Q9HAW9); experiment: Substrate glucuronidation by recombinant UGT1A8; details: UGT1A8 Supersomes 250 μg/ml; 7-HFC 50 μM
T2 sequence (Q9HAW9 26-530): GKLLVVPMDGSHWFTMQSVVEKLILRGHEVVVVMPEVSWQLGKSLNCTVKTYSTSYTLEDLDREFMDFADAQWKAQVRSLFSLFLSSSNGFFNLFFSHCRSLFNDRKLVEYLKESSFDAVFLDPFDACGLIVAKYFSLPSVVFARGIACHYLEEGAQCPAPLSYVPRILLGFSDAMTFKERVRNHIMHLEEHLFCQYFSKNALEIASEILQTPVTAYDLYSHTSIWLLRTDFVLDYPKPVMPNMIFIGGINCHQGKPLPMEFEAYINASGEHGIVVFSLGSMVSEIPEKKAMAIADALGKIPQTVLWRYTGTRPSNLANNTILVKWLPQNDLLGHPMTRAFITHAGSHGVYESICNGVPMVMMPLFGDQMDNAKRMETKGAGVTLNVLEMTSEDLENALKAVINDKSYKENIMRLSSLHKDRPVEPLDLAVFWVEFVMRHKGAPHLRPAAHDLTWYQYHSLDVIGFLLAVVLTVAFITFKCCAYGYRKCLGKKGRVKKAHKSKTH

[3] = Glucuronidation of UGT substrates by human liver microsomes; details: human, human liver microsomes, pH 7.5
[4] = test system: human liver microsomes; experiment: as above; details: for 7-HFC glucuronidation rate: 100 μg/ml protein, 1 mM UDPGA, 15 min
[5] = test system: pooled human jejunum microsomes; experiment: Glucuronidation of UGT substrates by pooled human jejunum microsomes; details: human jejunum microsomes (table footnote)
[6] = test system: UGT enzymes of human liver microsomes; experiment: Inhibition of 7-HFC glucuronidation in human liver microsomes; type: biochemical; details: 7-HFC 50 μM, human liver microsomes 100 μg/ml, 15 min
[7] = test system: UGT enzymes of pooled human jejunum microsomes; experiment: Inhibition of zidovudine glucuronidation in pooled human jejunum microsomes; type: biochemical; details: inhibitor 50 μM
Experimental: Increasing the microsomal protein concentration to 1 mg/ml and extending the incubation time to 60 min provided meaningful metabolite levels for inhibition studies.

[8] = test system: UGT enzymes of human liver microsomes; experiment: Inhibition of labetalol glucuronidation (LG1, LG2) in human liver microsomes; type: biochemical; details: labetalol 50 μM
[9] = target: T3, UGT1A3 (Homo sapiens, UniProt P35503); experiment: in vitro
T3 sequence (P35503 29-534): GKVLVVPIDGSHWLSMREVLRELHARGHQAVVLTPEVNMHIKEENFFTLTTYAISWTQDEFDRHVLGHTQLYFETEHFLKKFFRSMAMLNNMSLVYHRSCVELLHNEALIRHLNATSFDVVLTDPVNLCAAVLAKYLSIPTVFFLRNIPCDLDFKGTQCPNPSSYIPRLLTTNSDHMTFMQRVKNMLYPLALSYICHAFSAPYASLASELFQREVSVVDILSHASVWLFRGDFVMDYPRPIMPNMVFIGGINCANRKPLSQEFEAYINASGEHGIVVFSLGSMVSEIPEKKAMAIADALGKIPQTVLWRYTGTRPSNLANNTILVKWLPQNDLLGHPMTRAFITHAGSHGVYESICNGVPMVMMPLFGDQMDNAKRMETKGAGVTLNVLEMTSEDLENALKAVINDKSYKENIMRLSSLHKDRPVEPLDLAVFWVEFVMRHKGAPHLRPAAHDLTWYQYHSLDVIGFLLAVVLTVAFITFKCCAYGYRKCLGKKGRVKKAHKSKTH
Experimental: (§1) Compounds were eluted using a binary solvent gradient system. Solvent A was water brought to pH 8 with NH4OH. Solvent B was methanol. Solvent flow rate was 1 ml/min and the column temperature was maintained at 50° C. Detection was at 280 nm. […] The system was then returned to the initial conditions and equilibrated for 3 min.

[10] = target: T2, UGT1A8; experiment: in vitro; details: pH 7.5, % of control metabolism
Experimental: as §1

[11] = test system: UGT enzymes of human liver microsomes; experiment: Kinetic and Ki studies of inhibitors of 7-HFC glucuronidation in human liver microsomes; type: biochemical; details: for Inhibition Type: highest inhibitor concentration only; for Ki: highest inhibitor concentration only (tannic acid 0, 25; octyl gallate and gallocatechin gallate 0, 200 μM), read-out: Ki (apparent), 7-HFC glucuronidation
[12] = target: UGT2B15 (Homo sapiens, UniProt P54855)
Sequence of UGT2B15 (P54855 24-530): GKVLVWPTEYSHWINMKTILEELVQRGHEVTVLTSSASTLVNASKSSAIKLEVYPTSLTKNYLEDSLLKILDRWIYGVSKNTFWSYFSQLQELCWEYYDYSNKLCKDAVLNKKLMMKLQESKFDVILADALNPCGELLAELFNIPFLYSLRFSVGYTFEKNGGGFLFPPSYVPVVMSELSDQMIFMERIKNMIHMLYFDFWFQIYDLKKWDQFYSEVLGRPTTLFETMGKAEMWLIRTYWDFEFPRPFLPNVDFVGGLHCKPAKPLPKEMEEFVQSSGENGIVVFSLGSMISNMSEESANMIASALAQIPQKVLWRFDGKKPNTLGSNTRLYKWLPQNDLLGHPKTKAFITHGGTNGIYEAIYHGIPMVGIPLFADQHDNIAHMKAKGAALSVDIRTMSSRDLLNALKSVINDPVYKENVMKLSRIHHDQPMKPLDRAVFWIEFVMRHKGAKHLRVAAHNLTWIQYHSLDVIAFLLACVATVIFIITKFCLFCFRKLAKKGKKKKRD

[13] = pH 7.5, % of control metabolism, raloxifene G1
[14] = pH 7.5, % of control metabolism, raloxifene G2
[15] = pH 7.5, Inhibition of raloxifene glucuronidation, G1, UGT1A3
[16] = pH 7.5, Inhibition of raloxifene glucuronidation, G2, UGT1A3

O=c1cc(C(F)(F)F)c2ccc(O)cc2o1 [7-HFC, 7-hydroxy-4-(trifluoromethyl)coumarin]
7-HFC glucuronidation rate in Panvera Bacculosomes as % of Gentest Supersomes ([1]; UGT1A1): 42% | 7-HFC glucuronidation rate ([1]; UGT1A1 Bacculosomes 250 μg/ml): 346 ± 12 pmol/min/mg protein | 7-HFC glucuronidation rate ([1]; UGT1A1 Supersomes 250 μg/ml): 816 ± 70 pmol/min/mg protein and 929 ± 7 pmol/min/mg protein | 7-HFC glucuronidation rate [2]: 486 ± 5 pmol/min/mg protein | Km at 15 min [3]: 85 µM | 7-HFC glucuronidation rate in human liver microsomes, times higher than UGT1A6 Supersomes [4]: 6 times | 7-HFC metabolism rate ([4]; human liver microsomes (table footnote)): 26,405 ± 272 pmol/min/mg | 7-HFC glucuronidation rate ([4]; liver microsome lot 032101): 29,907±562 pmol/min/mg | 7-HFC glucuronidation rate ([4]; liver microsome lot 062101): 33,039±493 pmol/min/mg | 7-HFC glucuronidation rate ([4]; liver microsome lot 062900): 26,405±272 pmol/min/mg | mean apparent Vmax for 7-HFC glucuronidation ([4]; microsome lot 062900, substrate 20-500 μM): 60 nmol/min/mg microsomal protein | 7-HFC metabolism rate [5]: 6,829 ± 61 pmol/min/mg

CC/C(=C(/CC)c1ccc(O)cc1)c1ccc(O)cc1 [Diethylstilbestrol, reference compound]
% of control metabolism (SD, n = 3), 7-HFC glucuronidation ([6]; inhibitor 5 μM): 90 (3) % | % of control metabolism (SD, n = 3), 7-HFC glucuronidation ([6]; inhibitor 10 μM): 80 (4) % | residual metabolism (percentage of control), zidovudine [7]: 42 (3) % | residual metabolism (percentage of control), labetalol LG1 ([8]; inhibitor 10 μM): 66 (6) % | residual metabolism (percentage of control), labetalol LG2 ([8]; inhibitor 10 μM): 68 (7) % | residual metabolism (percentage of control), labetalol LG1 ([8]; inhibitor 25 μM): 39 (1) % | residual metabolism (percentage of control), labetalol LG2 ([8]; inhibitor 25 μM): 45 (3) %

O=C(O)c1cc(-c2ccc(F)cc2F)ccc1O [Diflunisal, reference compound]
residual metabolism (percentage of control), labetalol LG1 ([8]; inhibitor 500 μM): 43 (5) % | residual metabolism (percentage of control), labetalol LG2 ([8]; inhibitor 500 μM): 35 (2) % | activity at 15 min, 50 µM [9, 13]: 83% | activity at 15 min, 50 µM [9, 14]: 81% | activity at 15 min, 50 µM [9, 15]: 83% | activity at 15 min, 50 µM [9, 16]: 81% | activity at 15 min, 50 µM ([10]; raloxifene G1): 81% | activity at 15 min, 50 µM ([10]; raloxifene G2): 126%

O=C(O[C@@H]1Cc2c(O)cc(O)cc2O[C@@H]1c1ccc(O)c(O)c1)c1cc(O)c(O)c(O)c1 [Epicatechin gallate]
activity at 15 min, 50 µM [9, 13]: 57% | activity at 15 min, 50 µM [9, 14]: 42% | activity at 15 min, 50 µM [9, 15]: 57% | activity at 15 min, 50 µM [9, 16]: 42% | activity at 15 min, 50 µM ([10]; raloxifene G1): 71% | activity at 15 min, 50 µM ([10]; raloxifene G2): 53%

C=CCc1ccc(O)c(OC)c1 [Eugenol]
activity at 15 min, 50 µM [9, 13]: 89% | activity at 15 min, 50 µM [9, 14]: 85% | activity at 15 min, 50 µM [9, 15]: 89% | activity at 15 min, 50 µM [9, 16]: 85% | activity at 15 min, 50 µM ([10]; raloxifene G1): 107% | activity at 15 min, 50 µM ([10]; raloxifene G2): 103%

O=C(O[C@@H]1Cc2c(O)cc(O)cc2O[C@H]1c1cc(O)c(O)c(O)c1)c1cc(O)c(O)c(O)c1 [Gallocatechin gallate]
Inhibition Type [11]: Non-competitive | Ki [11]: 40 ± 3 µM | Inhibition Type ([11]; listed as gallocatechin gallate): strictly non-competitive

CC(CCc1ccccc1)NCC(O)c1ccc(O)c(C(N)=O)c1 (centres unmarked) [Labetalol, labetalol]
labetalol metabolism, in words [12]: No detectable metabolism was observed

CCCCCCCCOC(=O)c1cc(O)c(O)c(O)c1 [Octyl gallate]
Inhibition Type [11]: strictly non-competitive | Ki [11]: 16 ± 2 µM

CCCOC(=O)c1cc(O)c(O)c(O)c1 [Propyl gallate]
% of control metabolism (SD, n = 3), 7-HFC glucuronidation ([6]; inhibitor 1000 μM): 46 (1) % | % of control metabolism (SD, n = 3), 7-HFC glucuronidation ([6]; inhibitor 2000 μM): 32 (0) % | activity at 15 min, 50 µM [9, 13]: 55% | activity at 15 min, 50 µM [9, 14]: 56% | activity at 15 min, 25 µM [9, 15]: 72% | activity at 15 min, 50 µM [9, 15]: 55% | activity at 15 min, 25 µM [9, 16]: 79% | activity at 15 min, 50 µM [9, 16]: 56%

O=c1c(O)c(-c2ccc(O)c(O)c2)oc2cc(O)cc(O)c12 [Quercetin]
residual metabolism (percentage of control), labetalol LG1 ([8]; inhibitor 500 μM): 36 (3) % | residual metabolism (percentage of control), labetalol LG2 ([8]; inhibitor 500 μM): 23 (1) % | activity at 15 min, 50 µM ([10]; raloxifene G1): 95% | activity at 15 min, 50 µM ([10]; raloxifene G2): 81%

O=C(OC[C@H]1O[C@@H](OC(=O)c2cc(O)c(O)c(OC(=O)c3cc(O)c(O)c(O)c3)c2)[C@H](OC(=O)c2cc(O)c(O)c(OC(=O)c3cc(O)c(O)c(O)c3)c2)[C@@H](OC(=O)c2cc(O)c(O)c(OC(=O)c3cc(O)c(O)c(O)c3)c2)[C@@H]1OC(=O)c1cc(O)c(O)c(OC(=O)c2cc(O)c(O)c(O)c2)c1)c1cc(O)c(O)c(OC(=O)c2cc(O)c(O)c(O)c2)c1 [Tannic acid]
% of control metabolism (SD, n = 3), 7-HFC glucuronidation ([6]; inhibitor 5 μM): 72 (1) % | % of control metabolism (SD, n = 3), 7-HFC glucuronidation ([6]; inhibitor 10 μM): 47 (2), % and 50 (1) % | Inhibition Type [11]: Non-competitive | Ki [11]: 5.4 ± 0.4 µM | residual metabolism (percentage of control), labetalol LG1 ([8]; inhibitor 10 μM): 91 (2) % | residual metabolism (percentage of control), labetalol LG2 ([8]; inhibitor 10 μM): 88 (4) % | residual metabolism (percentage of control), labetalol LG1 ([8]; inhibitor 25 μM): 56 (2) % | residual metabolism (percentage of control), labetalol LG2 ([8]; inhibitor 25 μM): 51 (6) %
